Reference: patent EP2459571B1, “NITROIMIDAZOOXAZINES AND THEIR USES IN ANTI-TUBERCULAR THERAPY” (priority 2009, dated 2011)
Values after ≈ are worked out from the molar mass of the structure shown.

Legend:
M. tuberculosis Erdman [1] = test system: M. tuberculosis Erdman; design: species or system BALB/c mice; details: mouse, po, 100 mg/kg
M. tuberculosis Erdman [2] = type: in vivo, BALB/c mice; details: for In vivo efficacy vs PA-824, Chronic: mouse, po, 100 mg/kg
[3] = test system: replicating Mycobacterium tuberculosis; assay: MIC, microplate Alamar blue assay (MABA), 8 day; type: cell-based; details: 192 h, read-out: MIC MABA (aerobic)
in vivo = details: mouse, po, 40 mg/kg
[4] = test system: M. tuberculosis bacteria in the non-replicating state; assay: microbe, parasite or virus in culture; type: cell-based; details: Mycobacterium tuberculosis, 264 h, low oxygen, 11 day, read-out: MIC LORA (anaerobic)
[5] = CD-1 mice, oral, 40 mg/kg; for t½ (h) plasma: suspension in 0.5% carboxymethylcellulose/0.08% Tween 80

| Structure (SMILES) | In vivo efficacy vs PA-824, Acute (M. tuberculosis Erdman [1]) | log reduction in CFU (M. tuberculosis Erdman [2]; chronic assay, lungs, vs vehicle, oral 100 mg/kg) | In vivo efficacy vs PA-824, Chronic (M. tuberculosis Erdman [2]) | MIC [3] [µM] | AUC (in vivo) [µg·h/mL] | MIC [4] [µM] | Kp (in vivo) | Cmax plasma [5] [µg/mL] | t½ (h) plasma [5] [h] |
| --- | --- | --- | --- | --- | --- | --- | --- | --- | --- |
| O=[N+]([O-])c1cn2c(n1)OC[C@@H](OCc1ccc(OC(F)(F)F)cc1)C2 [PA-824, reference compound] | 1.0 | ~ 2 log | 1.0 | 0.5 (≈ 0.18 µg/mL) | 296 | 2.6 (≈ 0.934 µg/mL) |  |  |  |
| O=[N+]([O-])c1cn2c(n1)OC[C@@H](OCc1ccc(-c3ccc(OC(F)(F)F)cc3Cl)cc1)C2 [compound 1, (6S)-6-{[2'-Chloro-4'-(trifluoromethoxy)[1,1'-biphenyl]-4-yl]methoxy}-2-nitro-6,7-dihydro-5H-imidazo[2,1-b][1,3]oxazine] | 23 |  | 2.1 | 0.04 (≈ 0.0188 µg/mL) | 3360 | 0.78 (≈ 0.366 µg/mL) |  |  |  |
| O=[N+]([O-])c1cn2c(n1)OC[C@@H](OCc1ccc(-c3ccc(OC(F)(F)F)c(F)c3)cc1)C2 [compound 2, (6S)-6-{[3'-Fluoro-4'-(trifluoromethoxy)[1,1'-biphenyl]-4-yl]methoxy}-2-nitro-6,7-dihydro-5H-imidazo[2,1-b][1,3]oxazine] | 419 |  |  | 0.03 (≈ 0.0136 µg/mL) | > 513 | 0.34 (≈ 0.154 µg/mL) | > 1 |  |  |
| O=[N+]([O-])c1cn2c(n1)OC[C@@H](OCc1ccc(-c3ccc(OC(F)(F)F)cc3)cc1)C2 [compound 3, (6S)-2-Nitro-6-{[4'-(trifluoromethoxy)[1,1'-biphenyl]-4-yl]methoxy}-6,7-dihydro-5H-imidazo[2,1-b][1,3]oxazine] | >205 |  | 12 | 0.035 (≈ 0.0152 µg/mL) | 218 | 1.3 (≈ 0.566 µg/mL) |  |  |  |
| O=[N+]([O-])c1cn2c(n1)OC[C@@H](OCc1cnc(-c3ccc(OC(F)(F)F)cc3)cn1)C2 [compound 4, (6S)-2-nitro-6-({5-[4-(trifluoromethoxy)phenyl]-2-pyrazinyl}methoxy)-6,7-dihydro-5H-imidazo[2,1-b][1,3]oxazine] | 167 |  |  | 0.023 (≈ 0.0101 µg/mL) | > 324 | 1 (≈ 0.437 µg/mL) |  | 9.6 | 7.2 |
| O=[N+]([O-])c1cn2c(n1)OC[C@@H](OCc1ccc(-c3ccc(F)cc3)nc1)C2 [compound 5, (6S)-6-{[6-(4-Fluorophenyl)-3-pyridinyl]methoxy}-2-nitro-6,7-dihydro-5H-imidazo[2,1-b][1,3]oxazine] | 7.8 |  | 20 | 0.06 (≈ 0.0222 µg/mL) | 136 | 2.9 (≈ 1.07 µg/mL) |  | 5.3 | 2.7 |
| O=[N+]([O-])c1cn2c(n1)OC[C@@H](OCc1ccc(-c3ccc(OC(F)(F)F)cc3)nc1)C2 [compound 6, (6S)-2-Nitro-6-({6-[4-(trifluoromethoxy)phenyl]-3-pyridinyl}methoxy)-6,7-dihydro-5H-imidazo[2,1-b][1,3]oxazine] | >89 |  | 15 | 0.05 (≈ 0.0218 µg/mL) | 81 | 0.54 (≈ 0.236 µg/mL) |  |  | 24 |
| O=[N+]([O-])c1cn2c(n1)OC[C@@H](OCc1ccc(-c3ccc(C(F)(F)F)nc3)cc1)C2 [compound 9, (6S)-2-Nitro-6-({4-[6-(trifluoromethyl)-3-pyridinyl]benzyl}oxy)-6,7-dihydro-5H-imidazo[2,1-b][1,3]oxazine] | 15 |  | 4.6 | 0.03 (≈ 0.0126 µg/mL) | 414 | 2.1 (≈ 0.883 µg/mL) |  |  |  |
| Cn1nc(-c2ccc(OC(F)(F)F)cc2)cc1CO[C@@H]1COc2nc([N+](=O)[O-])cn2C1 [compound 11] | 12 |  | 0.9 | 0.06 (≈ 0.0264 µg/mL) | 92.4 | 0.58 (≈ 0.255 µg/mL) |  |  |  |
| O=[N+]([O-])c1cn2c(n1)OC[C@@H](Oc1ccc(-c3ccc(OC(F)(F)F)cc3)cc1)C2 [compound 13, (6S)-2-Nitro-6-{[4'-(trifluoromethoxy)[1,1'-biphenyl]-4-yl]oxy}-6,7-dihydro-5H-imidazo[2,1-b][1,3]oxazine] | 8.1 |  |  | 0.05 (≈ 0.0211 µg/mL) | 347 | 1.3 (≈ 0.548 µg/mL) |  | 1.86 |  |
| O=[N+]([O-])c1cn2c(n1)OC[C@@H](OCc1ccc(-c3ccc(C(F)(F)F)cn3)cc1F)C2 [compound 14, (6S)-6-({2-Fluoro-4-[5-(trifluoromethyl)-2-pyridinyl]benzyl}oxy)-2-nitro-6,7-dihydro-5H-imidazo[2,1-b][1,3]oxazine] | 52 |  |  | 0.055 (≈ 0.0241 µg/mL) | 148 | 2.3 (≈ 1.01 µg/mL) |  |  |  |
| O=[N+]([O-])c1cn2c(n1)OC[C@@H](OCc1ccc(-c3ccc(OC(F)(F)F)cc3)c(F)c1)C2 [compound 15, (6S)-6-{[2-Fluoro-4'-(trifluoromethoxy)[1,1'-biphenyl]-4-yl]methoxy}-2-nitro-6,7-dihydro-5H-imidazo[2,1-b][1,3]oxazine] | >933 |  |  | 0.055 (≈ 0.0249 µg/mL) |  | 0.51 (≈ 0.231 µg/mL) |  |  |  |
| O=[N+]([O-])c1cn2c(n1)OC[C@@H](OCc1cnc(-c3ccc(OC(F)(F)F)cc3)nc1)C2 [compound 16] | >1120 |  |  | 0.027 (≈ 0.0118 µg/mL) | 131 | 1.8 (≈ 0.787 µg/mL) |  |  |  |
| O=[N+]([O-])c1cn2c(n1)OC[C@@H](OCc1ccc(C#Cc3ccc(OC(F)(F)F)cc3)cn1)C2 [compound 18, (6S)-2-Nitro-6-[(5-{[4-(trifluoromethoxy)phenyl]ethynyl}-2-pyridinyl)methoxy]-6,7-dihydro-5H-imidazo[2,1-b][1,3]oxazine] | >933 |  |  | 0.02 (≈ 0.00921 µg/mL) | 235 | 1.4 (≈ 0.645 µg/mL) |  |  |  |
| O=[N+]([O-])c1cn2c(n1)OC[C@@H](OC/C=C/c1ccc(-c3ccc(OC(F)(F)F)cc3)cc1)C2 [compound 19, (6S)-2-Nitro-6-({(2E)-3-[4'-(trifluoromethoxy)[1,1'-biphenyl]-4-yl]-2-propenyl}oxy)-6,7-dihydro-5H-imidazo[2,1-b][1,3]oxazine] |  |  |  | 0.063 (≈ 0.0291 µg/mL) |  | > 64 |  |  |  |
| O=C(O[C@@H]1COc2nc([N+](=O)[O-])cn2C1)N1CCN(c2ccc(OC(F)(F)F)cc2)CC1 [compound 20] | 5.2 |  |  | 0.13 (≈ 0.0595 µg/mL) | 169 | 1.1 (≈ 0.503 µg/mL) |  | 2.5 | 10.5 |
| O=[N+]([O-])c1cn2c(n1)OC[C@@H](OCc1ccc(-c3ccc(OC(F)(F)F)c(F)c3)nc1)C2 [compound 21, (6S)-6-({6-[3-Fluoro-4-(trifluoromethoxy)phenyl]-3-pyridinyl}methoxy)-2-nitro-6,7-dihydro-5H-imidazo[2,1-b][1,3]oxazine] | >840 |  |  | 0.025 (≈ 0.0114 µg/mL) | 251 | 0.93 (≈ 0.423 µg/mL) |  | 7.0 |  |
| O=[N+]([O-])c1cn2c(n1)OC[C@@H](OCc1ccc(-c3ccc(OC(F)(F)F)c(F)c3)cn1)C2 [compound 22, (6S)-6-({5-[3-Fluoro-4-(trifluoromethoxy)phenyl]-2-pyridinyl}methoxy)-2-nitro-6,7-dihydro-5H-imidazo[2,1-b][1,3]oxazine] | 233 |  |  | 0.05 (≈ 0.0227 µg/mL) | 155 | 1.3 (≈ 0.591 µg/mL) |  | 7.6 | 8.4 |
| O=[N+]([O-])c1cn2c(n1)OC[C@@H](OCc1ccc(-c3ccc(C(F)(F)F)nc3)cc1F)C2 [compound 23, (6S)-6-({2-Fluoro-4-[6-(trifluoromethyl)-3-pyridinyl]benzyl}oxy)-2-nitro-6,7-dihydro-5H-imidazo[2,1-b][1,3]oxazine] | 8.8 |  |  | 0.13 (≈ 0.057 µg/mL) | 55.4 | 0.68 (≈ 0.298 µg/mL) |  |  |  |
| O=[N+]([O-])c1cn2c(n1)OC[C@@H](OCc1ccc(-c3ccc(OC(F)(F)F)cc3)nn1)C2 [compound 24] | 11 |  |  | 0.075 (≈ 0.0328 µg/mL) | 93.9 | 1.7 (≈ 0.743 µg/mL) |  |  | 2.9 |
| O=[N+]([O-])c1cn2c(n1)OC[C@@H](OCc1ccc(-c3ccc(F)cn3)cc1)C2 [compound 26, (6S)-6-{[4-(5-Fluoro-2-pyridinyl)benzyl]oxy}-2-nitro-6,7-dihydro-5H-imidazo[2,1-b][1,3]oxazine] |  |  |  | 0.035 (≈ 0.013 µg/mL) |  | 1.3 (≈ 0.481 µg/mL) |  |  |  |
| O=[N+]([O-])c1cn2c(n1)OC[C@@H](OCc1cnn(-c3ccc(OC(F)(F)F)cc3)c1)C2 [compound 27] |  |  |  | 0.15 (≈ 0.0638 µg/mL) |  | 1.8 (≈ 0.766 µg/mL) |  |  |  |
| O=[N+]([O-])c1cn2c(n1)OC[C@@H](OCc1ccc(-c3ccc(OC(F)(F)F)c(Cl)c3)nc1)C2 [compound 28, (6S)-6-({6-[3-Chloro-4-(trifluoromethoxy)phenyl]-3-pyridinyl}methoxy)-2-nitro-6,7-dihydro-5H-imidazo[2,1-b][1,3]oxazine] | >933 |  |  | 0.017 (≈ 0.008 µg/mL) | 284 | 1 (≈ 0.471 µg/mL) |  |  |  |
| O=[N+]([O-])c1cn2c(n1)OC[C@@H](OCc1ncc(-c3ccc(OC(F)(F)F)cc3)cn1)C2 [compound 29] |  |  |  | 0.11 (≈ 0.0481 µg/mL) |  | 1.9 (≈ 0.831 µg/mL) |  |  |  |
| O=[N+]([O-])c1cn2c(n1)OC[C@@H](OCc1ccc(C#Cc3ccc(OC(F)(F)F)cc3)cc1)C2 [compound 32, (6S)-2-Nitro-6-[(4-{[4-(trifluoromethoxy)phenyl]ethynyl}benzyl)oxy]-6,7-dihydro-5H-imidazo[2,1-b][1,3]oxazine] |  |  |  | 0.017 (≈ 0.00781 µg/mL) |  | > 128 |  |  |  |
| O=[N+]([O-])c1cn2c(n1)OC[C@@H](OCc1ccc(C#Cc3ccc(OC(F)(F)F)cc3)nc1)C2 [compound 33, (6S)-2-Nitro-6-[(6-{[4-(trifluoromethoxy)phenyl]ethynyl}-3-pyridinyl)methoxy]-6,7-dihydro-5H-imidazo[2,1-b][1,3]oxazine] |  |  |  | 0.02 (≈ 0.00921 µg/mL) |  | 0.94 (≈ 0.433 µg/mL) |  |  |  |
